Assay results published in paper PMC7824571, “Probing the Effects of the FGFR-Inhibitor Derazantinib on Vascular Development in Zebrafish Embryos” (Pharmaceuticals, 2020).
“Also recorded” adds a separate entry of the source.

Tests used:
in vitro = details: zebrafish, zebrafish embryo homogenate (1:20 in MilliQ water)
[1] = test system: developing vasculature in the zebrafish embryo; assay: Vascular development in zebrafish embryos (confocal / time-lapse imaging of transgenic lines); details: 0.1–0.3 μM in swimming water
zebrafish embryos = assay: Zebrafish embryo lethality; details: above a concentration of 1 μM
Experimental: Similarly, DMSO solutions (100 μM) of infigratinib (BGJ398) or vatalanib (PTK/ZK) were diluted in fish water to achieve concentrations of 0.1–0.3 μM. The compounds were added to embryo fish water E3 (5 mM NaCl, 0.17 mM KCl, 0.33 mM CaCl2, 0.33 mM MgSO4, pH 7.0) at 8–10 hpf onwards, before the onset of endothelial cell specification, as previously described.

[2] = Binding to mouse plasma protein
[3] = %PPB-Mouse (plasma protein binding)

Structure (SMILES)	fraction unbound at 20 h, 1 μM (in vitro)	ISV sprouting angiogenesis [1]	ISV-Aorta Connections [1]	Lumenization [1]	Blood flow ([1]; listed as Vatalanib)	ISV sprouting angiogenesis ([1]; listed as Vatalanib)	embryo lethality (zebrafish embryos)	fraction unbound ([2]; %Fu-PPB, free unbound)	fraction unbound [2, 3]	Anastomosis [1]	Blood flow [1]	Cell cycle [1]	Cell junctions [1]	Blood flow ([1]; listed as Infigratinib)	Cell cycle ([1]; listed as Infigratinib)	ISV sprouting angiogenesis ([1]; listed as Infigratinib)
Clc1ccc(Nc2nnc(Cc3ccncc3)c3ccccc23)cc1 [vatalanib]	0.0995 ± 0.0131	dramatically reduced	No defects	Moderate defects	dramatic defects in blood vessel function; also recorded: Moderate defects	Strong defects	80–90%	0.041 ± 0.0018	0.0413	–	–	–	–	–	–	–
CCN1CCN(c2ccc(Nc3cc(N(C)C(=O)Nc4c(Cl)c(OC)cc(OC)c4Cl)ncn3)cc2)CC1 [infigratinib]	0.0497 ± 0.0082	did not have any effect	Moderate defects	Mild defects	–	–	–	0.013	0.013	Moderate/strong defects	mild impediment of blood flow	inhibited cell cycle progression	Mild defects	Mild defects	Moderate defects	No defects
